# From patent publication US6943183B2 (Pfizer Inc, priority 2000, dated 2005)
# Target: T1, SF9 affinity purified rat FPT (Rattus norvegicus, UniProt Q02293+Q04631)
# T1 construct: made in house; host or cells: Sf9 insect cells
# Assay: PFT (FPT) inhibitory activity assay, radiolabeled farnesyl pyrophosphate and biotinyl peptide, streptavidin beads
# Type: biochemical
# Details: HEPES buffer pH 7.4, 30° C., 30 minutes; read-out: FTase IC50
# In short: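 Rat FPT expressed in SF9 cells was incubated 30 minutes at 30° C. with compound (in 10% DMSO), radiolabeled farnesyl pyrophosphate and biotinylated peptide. Buffer: HEPES pH 7.4, ZnCl2 20 μM, MgCl2 and DTT 5 mM each, 0.1% PEG 8000, 5 mM potassium phosphate (also run without phosphate). Product captured on streptavidin beads in magnesium acetate/H3PO4 stop buffer.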
row,Compound,IC50 [nM]
1,O=C1CCCc2c1ccc(O[C@H](Cn1ccnc1)c1ccccc1)c2CNc1ccc2[nH]ncc2c1 [Compound 145],16
2,"O=C1CCCc2c1ccc(O[C@H](Cn1ccnc1)c1ccccc1)c2C[S+]([O-])c1ccccn1 (mixture of isomers) [Compound 142, 6-((S)-2-Imidazol-1-yl-1-phenyl-ethoxy)-5-(pyridine-2-sulfinylmethyl)-3,4-dihydro-2H-napthalen-1-one]",0.55
3,"CC(C)[S+]([O-])Cc1c(O[C@H](Cn2ccnc2)c2ccccc2)ccc2c1CCCC2=O (mixture of isomers) [Compound 143, 6-((S)-2-Imidazol-1-yl-1-phenyl-ethoxy)-5-(propane-2-sulfinylmethyl)-3,4-dihydro-2H-napthalen-1-one]",1.4
4,"O=C(NC1CC1)c1cccc(S(=O)(=O)Cc2c(O[C@H](Cn3ccnc3)c3ccccc3)ccc3c2CCCC3=O)c1 [Compound 224, N-Cyclopropyl-3-{[(2-{[(1S)-2-(1H-imidazol-1-yl)-1-phenylethyl]oxy}-5-oxo-5,6,7,8-tetrahydro-1-naphthalenyl)methyl]sulfonyl}benzamide]",0.2
5,"O=C1CCCc2c1ccc(O[C@H](Cn1ccnc1)c1ccccc1)c2CCc1cncc2ccccc12 [Compound 26c, (S)-6-(-2-Imidazol-1-yl-1-phenyl-ethoxy)-5-(2-isoquinolin-4-yl-ethyl)-3,4-dihydro-2H-naphthalen-1-one]",0.2
6,"O=C1CCCc2c1ccc(O[C@H](Cn1ccnc1)c1ccccc1)c2NC(=O)c1cccc2cccnc12 [Compound 40g, Quinoline-8-carboxylic acid [2-((S)-2-imidazol-1-yl-1-phenyl-ethoxy)-5-oxo-5,6,7,8-tetrahydro-naphthalen-1-yl]-amide]",0.8
7,O=C1CCCc2c1ccc(O[C@H](Cn1ccnc1)c1ccccc1)c2-c1ccoc1 [Compound 36],7
8,"CC(O)CNC(=O)c1cccc(S(=O)(=O)Cc2c(O[C@H](Cn3ccnc3)c3ccccc3)ccc3c2CCCC3=O)c1 (stereo partly drawn) [Compound 254, N-(2-Hydroxypropyl)-3-{[(2-{[(1S)-2-(1H-imidazol-1-yl)-1-phenylethyl]oxy}-5-oxo-5,6,7,8-tetrahydro-1-naphthalenyl)methyl]sulfonyl}benzamide]",1
9,"O=C(Nc1c(O[C@H](Cn2ccnc2)c2cccnc2)ccc2c1CCCC2=O)c1cnccn1 [Compound 63e, Pyrazine-2-carboxylic acid [2-((S)-2-imidazol-1-yl-1-pyridin-3-yl-ethoxy)-5-oxo-5,6,7,8-tetrahydro-naphthalen-1-yl]-amide]",9.7
10,"O=C1CCCc2c1ccc(O[C@H](Cn1ccnc1)c1ccccc1)c2NC(=O)c1nccc2ccccc12 [Compound 40a, Isoquinoline-1-carboxylic acid [2-((S)-2-imidazol-1-yl-1-phenyl-ethoxy)-5-oxo-5,6,7,8-tetrahydro-naphthalen-1-yl]-amide]",0.65
11,"O=C1CCCc2c1ccc(O[C@H](Cn1ccnc1)c1ccccc1)c2CSCc1ccc(Cl)c(Cl)c1 [Compound 10c, 5-(3,4-Dichloro-benzylsulfanylmethyl)-6-((1S)-2-imidazol-1-yl-1-phenyl-ethoxy)-3,4-dihydro-2H-naphthalen-1-one]",5.3
12,O=C(Nc1c(O[C@H](Cn2ccnc2)c2ccccc2)ccc2c1CCCC2=O)c1cnccn1 [Compound 40c],1.2
13,CC(C)S(=O)(=O)Cc1c(O[C@H](Cn2ccnc2)c2ccccc2)ccc2c1CCCC2=O [Compound 7],6
14,"CC(C)SCc1c(O[C@H](Cn2ccnc2)c2ccccc2)ccc2c1CCCC2=O [Compound 6, 6-((S)-2-Imidazol-1-yl-1-phenyl-ethoxy)-5-isopropylsulfanylmethyl-2,3,4-trihydronaphthalen-1-one]",0.4
15,"O=C(O)c1cccc(S(=O)(=O)Cc2c(O[C@H](Cn3ccnc3)c3ccccc3)ccc3c2CCCC3=O)c1 [Compound 161, 3-{[(2-{[(1S)-2-(1H-Imidazol-1-yl)-1-phenylethyl]oxy}-5-oxo-5,6,7,8-tetrahydro-1-naphthalenyl)methyl]sulfonyl}benzoic Acid]",5
16,"CC(C)COCc1c(O[C@H](Cn2ccnc2)c2ccccc2)ccc2c1CCCC2=O [Compound 19a, 6-((S)-2-Imidazol-1-yl-1-phenyl-ethoxy)-5-isobutoxymethyl-1-3,4-dihydro-2H-naphthalen-1-one]",1.9
17,"O=C1CCCc2c1ccc(O[C@H](Cn1ccnc1)c1cccnc1)c2CS(=O)(=O)c1ccccn1 [Compound 63ba, 6-((S)-2-Imidazol-1-yl-1-pyridin-3-yl-ethoxy)-5-(pyridin-2-ylsulfonylmethyl)-3,4-dihydro-2H-napthalen-1-one]",0.16
18,"CCOC(=O)CCNC(=O)c1ccccc1SCc1c(O[C@H](Cn2ccnc2)c2ccccc2)ccc2c1CCCC2=O [Compound 187, Ethyl 3-[(2-{[(2-{[(1S)-2-(1H-Imidazol-1-yl)-1-phenylethyl]oxy}-5-oxo-5,6,7,8-tetrahydro-1-naphthalenyl)methyl]sulfanyl}benzoyl)amino]propanoate]",7
19,O=C1CCCc2c1ccc(O[C@H](Cn1ccnc1)c1cccnc1)c2CCc1ccccn1 [Compound 63c],0.3
20,"CCOc1ccccc1OCc1c(O[C@H](Cn2ccnc2)c2ccccc2)ccc2c1CCCC2=O [Compound 78, 6-((1S)-2-Imidazolyl-4-phenylethoxy)-5-[(2-ethoxyphenoxy)methyl]-2,3,4-trihydronaphthalen-1-one]",0.8
21,"O=C1CCCc2c1ccc(O[C@H](Cn1ccnc1)c1ccccc1)c2NC(=O)c1ncoc1-c1ccc(Cl)cc1 [Compound 40d, 5-(4-Chloro-phenyl)-oxazole-4-carboxylic acid [2-((S)-2-imidazol-1-yl-1-phenyl-ethoxy)-5-oxo-5,6,7,8-tetrahydro-naphthalen-1-yl]-amide]",9
22,COC(=O)c1cccc(S(=O)(=O)Cc2c(O[C@H](Cn3ccnc3)c3ccccc3)ccc3c2CCCC3=O)c1 [Compound 156],5

# Next, values leading:
row,IC50 [nM],Compound
1,0.2,"CC[C@H](CO)NC(=O)c1ccc(SCc2c(O[C@H](Cn3ccnc3)c3ccccc3)ccc3c2CCCC3=O)cc1 [Compound 245, N-[(1R)-1-(Hydroxymethyl)propyl]-4-{[(2-{[(1S)-2-(1H-imidazol-1-yl)-1-phenylethyl]oxy}-5-oxo-5,6,7,8-tetrahydro-1-naphthalenyl)methyl]sulfanyl}benzamide]"
2,10,"O=C(O)c1ccc(S(=O)(=O)Cc2c(O[C@H](Cn3ccnc3)c3ccccc3)ccc3c2CCCC3=O)cc1 [Compound 160, 4-{[(2-{[(1S)-2-(1H-Imidazol-1-yl)-1-phenylethyl]oxy}-5-oxo-5,6,7,8-tetrahydro-1-naphthalenyl)methyl]sulfonyl}benzoic Acid]"
3,0.55,"O=C(NCc1ccco1)c1ccc(S(=O)(=O)Cc2c(O[C@H](Cn3ccnc3)c3ccccc3)ccc3c2CCCC3=O)cc1 [Compound 229, N-(2-Furylmethyl)-4-{[(2-{[(1S)-2-(1H-imidazol-1-yl)-1-phenylethyl]oxy}-5-oxo-5,6,7,8-tetrahydro-1-naphthalenyl)methyl]sulfonyl}benzamide]"
4,0.2,"COCCNC(=O)c1ccccc1SCc1c(O[C@H](Cn2ccnc2)c2ccccc2)ccc2c1CCCC2=O [Compound 260, 2-{[(2-{[(1S)-2-(1H-Imidazol-1-yl)-1-phenylethyl]oxy}-5-oxo-5,6,7,8-tetrahydro-1-naphthalenyl)methyl]sulfanyl}-N-(2-methoxyethyl)benzamide]"
5,35,"CC(=O)N(Cc1c(O[C@H](Cn2ccnc2)c2ccccc2)ccc2c1CCCC2=O)c1ccc(C)cc1 [Compound 144, N-[2-((S)-2-Imidazol-1-yl-1-phenyl-ethoxy)-5-oxo-5,6,7,8-tetrahydro-naphthalen-1-ylmethyl]-N-β-tolyl-acetamide]"
6,2.5,"COC(=O)CSCc1c(O[C@H](Cn2ccnc2)c2ccccc2)ccc2c1CCCC2=O [Compound 10b, [2-(2-Imidazol-1-yl-1(S)-phenyl-ethoxy)-5-oxo-5,6,7,8-tetrahydro-naphthalen-1-ylmethylsulfanyl]-acetic acid methyl ester]"
7,0.2,"C=CCNC(=O)c1ccc(SCc2c(O[C@H](Cn3ccnc3)c3ccccc3)ccc3c2CCCC3=O)cc1 [Compound 209, N-Allyl-4-{[(2-{[(1S)-2-(1H-imidazol-1-yl)-1-phenylethyl]oxy}-5-oxo-5,6,7,8-tetrahydro-1-naphthalenyl)methyl]sulfanyl}benzamide]"
8,3,"CN(C)CCNC(=O)c1ccc(SCc2c(O[C@H](Cn3ccnc3)c3ccccc3)ccc3c2CCCC3=O)cc1 [Compound 177, N-[2-(Dimethylamino)ethyl]-4-{[(2-{[(1S)-2-(1H-imidazol-1-yl)-1-phenylethyl]oxy}-5-oxo-5,6,7,8-tetrahydro-1-naphthalenyl)methyl]sulfanyl}benzamide]"
9,19,"O=C1CCCc2c1ccc(O[C@H](Cn1ccnc1)c1ccccc1)c2CNc1ccc(F)cc1 [Compound 151, 5-[(4-Fluoro-phenylamino)-methyl]-6-((S)-2-imidazol-1-yl-1-phenyl-ethoxy)-3,4-dihydro-2H-napthalen-1-one]"
10,0.3,"O=C(NCc1ccco1)c1cccc(SCc2c(O[C@H](Cn3ccnc3)c3ccccc3)ccc3c2CCCC3=O)c1 [Compound 239, N-(2-Furylmethyl)-3-{[(2-{[(1S)-2-(1H-imidazol-1-yl)-1-phenylethyl]oxy}-5-oxo-5,6,7,8-tetrahydro-1-naphthalenyl)methyl]sulfanyl}benzamide]"
11,0.3,"COC(=O)c1ccccc1SCc1c(O[C@H](Cn2ccnc2)c2ccccc2)ccc2c1CCCC2=O [Compound 4, Methyl 2-{[2-((1S)-2-imidazolyl-1-phenylethoxy)-5-oxo-6,7,8-trihydronaphthyl]methylthio}benzoate]"
12,10,"O=C(NCCO)c1ccc(S(=O)(=O)Cc2c(O[C@H](Cn3ccnc3)c3ccccc3)ccc3c2CCCC3=O)cc1 [Compound 175, N-(2-Hydroxyethyl)-4-{[(2-{[(1S)-2-(1H-imidazol-1-yl)-1-phenylethyl]oxy}-5-oxo-5,6,7,8-tetrahydro-1-naphthalenyl)methyl]sulfonyl}benzamide]"
